The values that follow are results of earlier work, collected in article PMC9262839 (Cancer Discovery, 2022).

For data set [1] the following is noted: cited from earlier work.
The subject of a further data set is NSCLC with EGFRexon20ins. The following applies: cited from earlier work.

On to `C=CC(=O)Nc1cc(Nc2ncc(C(=O)OC(C)C)c(-c3cn(C)c4ccccc34)n2)c(OC)cc1N(C)CCN(C)C` [Mobocertinib], for which, in data set [1], the “patients with ≥grade 3 diarrhea” value is listed as 21% and the “patients with ≥grade 3 treatment-related adverse events” value is given as “around 40%”.

B1: amivantamab: EGFR and MET bispecific antibody (antibody, chains of the INN, looked up, V domains shown)
VH: QVQLVESGGGVVQPGRSLRLSCAASGFTFSTYGMHWVRQAPGKGLEWVAVIWDDGSYKYYGDSVKGRFTISRDNSKNTLYLQMNSLRAEDTAVYYCARDGITMVRGVMKDYFDYWGQGTLVTVSS
VL: AIQLTQSPSSLSASVGDRVTITCRASQDISSALVWYQQKPGKAPKLLIYDASSLESGVPSRFSGSESGTDFTLTISSLQPEDFATYYCQQFNSYPLTFGGGTKVEIK
VH2: QVQLVQSGAEVKKPGASVKVSCETSGYTFTSYGISWVRQAPGHGLEWMGWISAYNGYTNYAQKLQGRVTMTTDTSTSTAYMELRSLRSDDTAVYYCARDLRGTNYFDYWGQGTLVTVSS
VL2: DIQMTQSPSSVSASVGDRVTITCRASQGISNWLAWFQHKPGKAPKLLIYAASSLLSGVPSRFSGSGSGTDFTLTISSLQPEDFATYYCQQANSFPITFGQGTRLEIK
Regarding B1, the “objective response rate (ORR)” value in the data set with NSCLC with EGFRexon20ins is reported as “around 40%”.
